Residues, ends and D or L forms follow the SMILES beside them. *: point of attachment. Cbz = O=C(OCc1ccccc1)*
Row | SMILES | melting point [°C]
1 | CC(C)(CO)NS(=O)(=O)c1cnc(NC(=O)c2cnn3c(C(F)F)cc(-c4ccc(C(F)(F)F)cc4)nc23)s1 | 280
2 | NC(=O)c1nc(-c2cccc(N)c2)cs1 | 193 to 194
3 | CCCCc1nn2cc(C(=O)OCC)ccc2c1C(=O)c1ccc(Br)cc1 | < 50
4 | CCC(CNC(=O)c1ccc(C(F)(F)F)c(NC(C)=O)c1)OC(C)=O (stereo not drawn) | 121
5 | CC1=C(C(=O)OC(C)C)C(c2cccc([N+](=O)[O-])c2)C(C(=O)OC2CN(C(c3ccccc3)c3ccccc3)C2)=C(N)N1 (stereo not drawn) | 95 to 98
6 | N#Cc1cc(O)c(O)c(C#N)c1CCC(=O)O | 210 to 220
7 | CCOC(=O)CC1=COc2ccc(O)cc2O1 | 160
8 | Cc1ccccc1Cc1nc[nH]c1C | 138 to 140
9 | O=C(O)c1cc(-c2cccc(C(F)(F)F)c2)c(=O)n2ccccc12 | 228 to 229
10 | Cc1cccc(C)c1C(=O)NC(C)(C)C | 134 to 136
11 | Cc1ncn2c1CN(C)C(=O)c1ccccc1-2 | 184 to 186
12 | CC(CCc1cccc(F)c1)NCC(O)c1ccc(F)c(S(N)(=O)=O)c1 (stereo not drawn) | 65 to 85
13 | CN1CCC(c2c[nH]c3ccc(NC(=O)c4cccnc4)nc23)CC1 | 136 to 137
14 | CC(=NOCCOc1ccc(CC2SC(=O)NC2=O)cc1)c1ccc(O)cc1 (stereo not drawn) | 157 to 159
15 | O=C(O)Cc1c(C(=O)c2cccc(-c3ccco3)c2)[nH]c2cc(Cl)ccc12 | 246 to 249
16 | CNC(=O)C(=NO)c1ccccc1C | 160 to 161
17 | COc1ccc(S(=O)(=O)n2c(=O)[nH]c3cc(Cl)ccc3c2=O)cc1OC | > 250
18 | COc1cc(C(C)=O)cc(OC)c1OCCOc1ccc2ccccc2c1 | 76 to 77
19 | CC(=C(c1ccc(N(C)C)cc1)c1ccc(N(C)C)cc1)P(C1CCCCC1)C1CCCCC1 | 159 to 164
20 | COc1ccc(CCNC(=O)C(=O)O)cc1OC1CCCC1 | 123 to 124
21 | CCCCOC(=O)COc1ccc(C(=O)Nc2cc(F)ccc2Sc2ccccc2-c2nnn[nH]2)cc1 | 177 to 179
22 | O=C(COCCc1coc2c(O)cccc12)c1ccccc1 | 114 to 115
23 | Cc1noc(NS(=O)(=O)c2ccc(S(=O)(=O)c3ccccc3)s2)c1Br | 139 to 142
24 | COc1ccc(Cn2c(=S)[nH]c(=S)c3[nH]cnc32)cc1OC1CCCC1 | 215 to 218
25 | CCCCc1nc(CO)c(C(=O)NCC(=O)O)n1Cc1ccc(-c2ccccc2C(=O)O)cc1 | > 110
26 | Cc1oc(-c2ccccc2)nc1CCCCCO | 40 to 42

Row | SMILES | melting point [°C]
27 | CCOC(=O)CC[C@H](NC(=O)c1ccc(N)c(C)c1)C(=O)OCC | 79 to 82
28 | CCOCc1nc2c(N)nc3ccccc3c2n1CCCCCS(=O)(=O)N(C)C | 138 to 142
29 | O=C(CCc1ccc(NC2=NCCN2)cc1)c1ccc(N2CCOCC2)cc1 | 196 to 198
30 | c1ccc(C2CN(CCc3ccccn3)Cc3c2[nH]c2ccccc32)cc1 (stereo not drawn) | 190 to 192
31 | CN1C(=O)CC[C@]2(C)c3ccc(-c4cccc(CNC(c5ccccc5)c5ccccc5)c4)cc3CC[C@@H]12 | 55 to 57
32 | Cc1cccc(C)c1N1CC(C)N(c2c(C)cccc2C)C1=NCC(=O)O (stereo not drawn) | 307 to 310
33 | CCOC(=O)COc1c2c3c(ccnc3c3ccccc13)CCC2 | 70
34 | O=C(O)C1=Cc2cc(Cl)cc(C=NO)c2OC1C(F)(F)F (stereo not drawn) | 247 to 248
35 | Nc1cc(Cl)c(Cl)c(Cl)c1N | 109 to 111
36 | COC(=O)c1cccc(F)c1O | 94 to 95
37 | COC(=O)c1ccc(CC(C)NCC(O)c2ccccc2Cl)cc1 (stereo not drawn) | 109 to 110
38 | CC(C(=O)c1ccc(F)cc1F)n1cnc(-c2ccc(OCc3ccccc3)cc2)n1 (stereo not drawn) | 80 to 97
39 | COC(=O)CCc1cccc(OCCC2Oc3ccccc3N(Cc3cccc(Cl)c3)C2=O)c1 (stereo not drawn) | 92 to 94
40 | c1ccc2c(c1)ccn2Cc1ccncc1 | 65 to 68
41 | CC1(C)CCCC(N2CCN(C3CCC(C(C)(C)C)CC3)CC2)C1 (stereo not drawn) | 90 to 92
42 | COc1cc(-c2cnc3[nH]cc(C(=O)NC4CCCOC4)c3n2)cc(OC)c1OC (stereo not drawn) | 191 to 192
43 | O=C(CC(=O)c1ccc(C(F)(F)F)cc1[N+](=O)[O-])c1ccccc1 | 101 to 103
44 | COc1ccc(-c2cncc(C#N)c2Oc2ccc3[nH]ccc3c2)cc1OC | 192 to 194
45 | CCCCCCCCCCc1ccc(C(N)(CO)CO)cc1 | 136 to 137
46 | CCOC(=O)c1cnc2cc(C)sc2c1O | 240 to 245
47 | CC(C)(C)c1cc(NC(=O)C2CCCCC2C(=O)O)cc(C(C)(C)C)c1O (stereo not drawn) | 247 to 252
48 | COc1cccc2c(=O)[nH]c(-c3ccccc3)cc12 | 227 to 231
49 | N#Cc1ccc(N2Cc3ccccc3C2)c2ccccc12 | 156 to 158
50 | COC(=O)C(=CN(C)C)n1ccc2ccc(-c3nccc(-c4ccccc4)n3)cc21 | 168
51 | NC(=O)/C=C1/c2cc(F)ccc2CC1O[N+](=O)[O-] (stereo not drawn) | 162 to 163
52 | Cc1ccc(O)c(Cl)n1 | 190 to 191

Row | SMILES | melting point [°C]
53 | Fc1cc(Br)cc(OCc2ccc3ccccc3c2)c1 | 65 to 67
54 | O=C(NCCCO)c1cccc(-c2cccn3c(=O)n(Cc4cccc(C(F)(F)F)c4)nc23)c1 | 148 to 149
55 | O=C1NC(N2CCCCCC2)=N/C1=C\c1c[nH]c2ncc(F)cc12 | 299
56 | CCOC(=O)[C@H](CSCc1ccccc1)NC(=O)C(C)(C)NC(=O)[C@@H](SC(C)=O)C(C)C | 69 to 71
57 | Cc1ccc(-c2ccccc2C(=O)NC(C)(C)C)cc1 | 105 to 106
58 | N#Cc1[nH]c2ccc(Cl)cc2c1-c1ccccc1F | 185 to 186
59 | COc1cc2c(Nc3ccc(Sc4ccccn4)c(Cl)c3)c(C#N)cnc2cc1N1CCC(N2CCCC2)CC1 | 203 to 205
60 | OCc1cc(N2CCOCC2)c(F)cn1 | 134 to 136
61 | CN(C)c1ccc2c(c1)CNC2=O | 122 to 124
62 | CC1(C)COP(=O)(O)OC1c1cccc2ccccc12 (stereo not drawn) | 216 to 217
63 | Nc1nc2c(Cc3ccccn3)c[nH]c2c(=O)[nH]1 | 280 to 282
64 | CCCOC(=O)Nc1nc2ccccc2c2c1nc(CC)n2CCCCNS(C)(=O)=O | 155 to 157
65 | COc1cc(C(=O)C(F)(F)F)ccc1OCCCN1CCC(c2noc3cc(F)ccc23)CC1 | 78 to 80
66 | CSc1ccc(-c2nc(O)c(C(=O)Nc3ccc(C)cc3)c(SC)n2)cc1 | 302 to 305
67 | CCN1C(=O)Nc2ccc(Cl)cc2C1(O)c1ccccc1 (stereo not drawn) | 182 to 184
68 | Cc1nc2ccccc2c(NCc2ccccc2)c1C(C)O (stereo not drawn) | 176 to 177
69 | CN1CCC(N(C)c2ncc3ncnc(Nc4ccc(Cl)c([N+](=O)[O-])c4)c3n2)CC1 | 210 to 215
70 | N#Cc1cncc(I)c1Cl | 120 to 122
71 | CCCCc1nc(SCC)c(CO)n1Cc1ccc(-c2ccccc2C(=O)O)cc1 | 160
72 | COc1ccccc1CNc1ccc2cc(Nc3nnc(C4CC4)o3)ccc2n1 | 199
73 | Nc1nc(/C=C/c2ccc([N+](=O)[O-])cc2)cs1 | 278
74 | CC(C)=CCOc1ccc(C(=O)C=Cc2ccncc2)c(O)c1 | 99 to 100
75 | O=C1NC(=O)C(CCCCc2ccc(O)cc2)O1 (stereo not drawn) | 151 to 152
76 | CCC(C)Sc1cc(C(F)(F)F)ccc1C(=O)O (stereo not drawn) | 99.8 to 101
77 | CCOC(=O)C(=O)Nc1c([N+](=O)[O-])cc(C(C)=O)c2c1CCCC2 | 120 to 121
78 | CC(C)NCC(O)COc1ccccc1C1=NN(C)C(=O)CC1 (stereo not drawn) | 82 to 84

Row | SMILES | melting point [°C]
79 | Cc1ncc(CNC(=O)c2sc(-n3cnn(Cc4ccc(F)cc4)c3=O)nc2C)s1 | 176 to 177
80 | CC(C)OC(=O)c1cc(N)ccc1Cl | 50.5 to 52
81 | Cc1cc(C=O)ccc1C(N)=O | 119 to 121
82 | CCCCCCCCCCCCCCCC(CC)C1OC(=O)C(O)=C1O (stereo not drawn) | 114 to 117
83 | Cc1c(NC(=O)c2ccc(OC[C@H]3CCCO3)cc2)ccc2cc(CNCC(C)(C)C)cnc12 | 110 to 111
84 | NC(=O)NC(=O)c1ccc2ccccc2c1 | 207 to 208
85 | N#CSCC(I)=C(I)CBr | 84 to 86
86 | CC1(C)CC(=O)C(C(=O)Nc2cccc([N+](=O)[O-])c2)C(=O)O1 (stereo not drawn) | 138 to 140
87 | CN1C(=O)N(C[C@H](C(=O)NOCc2ccccc2)[C@@H](CC2CCCC2)C(=O)N2CCCCC2)C(=O)C1(C)C | 138 to 140
88 | COc1ccc2cc(CCCOCCCCCCNCC(O)c3ccc(O)c(NS(C)(=O)=O)c3)ccc2c1 (stereo not drawn) | 87 to 89
89 | COC(=O)c1ccc(OCCCN(C(=O)c2ccc(C(C)(C)C)cc2)c2ccc(Cl)cc2)cc1 | 201 to 203
90 | CC1(C)CC(=O)c2c(ncc3[nH]c4ccccc4c23)C1 | 224 to 225
91 | CCNC(=O)C(C)NC(=O)C(C)NC(=O)C1CCCN1C(=O)OCc1ccccc1 (stereo not drawn) (Cbz-Pro-Ala-Ala-NHEt; configuration not given here) | 219 to 220
92 | Cc1c(C)c(NC(=O)CC(C)(C)C)c2c(c1C)C(c1ccc(C(C)C)cc1)CO2 (stereo not drawn) | 190 to 191
93 | O=C(O)[C@H](Cc1ccccc1)NS(=O)(=O)c1ccccc1 | 150 to 152
94 | CCOC(=O)CNc1cc(F)ccc1C(=O)O | 123 to 125
95 | O=S(=O)(c1ccc(C(F)(F)F)cc1)N1CCCC1c1ccc(F)cc1 (racemic) | 85
96 | Cn1ccnc1Sc1ccc(Nc2c(C#N)cnc3cc(N4CCC(N5CCCC5)CC4)c([N+](=O)[O-])cc23)cc1Cl | 220 to 230
97 | c1ccc(COc2cccc3c2NCC3)cc1 | 58 to 60
98 | CCCCCCCCC1OC(=O)c2cc(N)ccc21 (stereo not drawn) | 124 to 125
99 | CNC(=O)CC(SC(C)=O)C(CC(C)C)C(=O)NC(Cc1ccc(OC)cc1)C(=O)NC (stereo not drawn) | 195 to 199
100 | CCOCc1nc2c(N)nc3ccc(OCc4cccnc4)cc3c2n1CC(C)C | 204 to 206
101 | CON1C=C2N=NC3=C(N2C1)N(c1cc(Cl)ccc1Cl)CC(C)=C3 | 159 to 162
102 | CCC(C)(C(=O)N(C)C)n1cc(C)c(-c2ccccc2)n1 (stereo not drawn) | 102 to 104
103 | CC(O)C(=O)c1ccc(F)cc1F (stereo not drawn) | 49 to 51

Reference: a melting point compilation (Tetko et al.; mined from patent text by program, amines drawn as free bases though some values may be those of a salt)
